{"source": "patent US20050215529A1", "about": "“Method of treating oxidative stress-associated conditions with isopentenyl diphosphate” (THE REGENTS OF THE UNIVERSITY OF MICHIGAN, priority 2004, published 2005)", "key": {"[1]": {"system": "p53-deficient cell lines HL60 and K562 and the nucleotide excision repair-deficient line XPA", "assay": "DNA damage protection in p53-deficient and nucleotide excision repair-deficient lines (data not shown)", "assay_type": "cell-based"}, "[2]": {"system": "human fibroblastoid M1 cells", "assay": "Comet assay, inhibition of 2CA- or IPP-mediated DNA damage protection by antagonists/inhibitors", "assay_type": "cell-based", "set-up": "key to Mechanism of Signal Transduction: PKA / Mechanism of Signal Transduction: Mevalonate Pathway / Mechanism of Signal Transduction: GGT / Mechanism of Signal Transduction: FT / Mechanism of Signal Transduction: Proteasome: “+” indicates a dependence; “−” indicates independence", "description": "(§1) A single-cell gel electrophoresis (SCGE) assay, known as the “Comer” assay was performed to detect/quantify DNA damage by identifying DNA-strand breakage in individual cells, for example. The assay was performed using a kit commercially-available from Trevigen, Inc., of Gaithersburg, Md., as “CometAssay™.” See P. J. McCarthy et al. (1997) Mutagenesis 12:209-214; A. R. Collins et al. (2001) Biochem. Soc. Trans. 29:337-341. Sub-confluent cells were washed with phosphate buffered saline (PBS) and detached from the tissue culture flasks using a 0.05% trypsin solution. After centrifugation, the cells were washed and re-suspended in serum-free DMEM medium. The cells were divided into Eppendorf tubes (1.5 ml), and centrifuged at 2500 rotations per minutes (rpm) for ten minutes. Signal-modulating agents were added and samples were kept in a 37° C. incubator for thirty minutes. In some experiments, the cells were pre-incubated with various inhibitors for the indicated times at 37° C. At the end of the incubation period with signal-modulating chemicals, the cells were washed with PBS and treated with 100 μM H2O2 in 0.5 ml PBS on ice for twenty minutes. Following the hydrogen peroxide treatment, the cells were immediately microfuged for fifteen seconds. The cells were twice washed with cold PBS, and re-suspended at 1.0×10^5 cells/ml in ice-cold PBS. Five microliter cell suspension were each mixed with 50 μl molten LMAgarose and, thereafter, the mixtures were placed onto slides (CometSlide™).\n(§2) The slides were placed at 4° C. in the dark for ten minutes and subsequently immersed in pre-chilled Lysis Solution at 4° C. for an additional thirty minutes. Following this incubation, excess buffer was tapped off from the slides. Subsequently, the slides were placed in a 50 ml Coplin jar containing alkali buffer for thirty minutes at room temperature in the dark and then immersed in 50 ml of TBE buffer for five minutes. The slides were then placed flat onto a gel tray submerged in TBE buffer in a horizontal electrophoresis apparatus, and aligned equidistant from the electrodes. Electrophoresis was performed at one volt per centimeter (cm) for ten minutes. Following this electrophoresis, the samples were fixed in 100% methanol for five minutes and 100% ethanol for five minutes. After drying, 50 μl of diluted SYBR Green Concentrate was added onto each circle of agarose. Comet tail fluorescence intensity was quantified with a Diagnostic Instruments digitized camera, mounted on a Nikon Eclipse E400 microscope, using Scion Image software. Quantification of comet fluorescence was performed as described in P. J. McCarthy et al. (1997) Mutagenesis 12:209-214. Each data point was derived from 30 to 100 individual cells. The data are shown either in arbitrary fluorescent units, or as % DNA damage protection (i.e., the percent decrement in tail fluorescence intensity with test reagent, relative to the intensity recorded in cells treated with hydrogen peroxide only)±S.E.M.\nSpecifically, […], human fibroblastoid M1 cells were incubated for thirty minutes in either H-89 or 8-bromoguanosine-3′,5′-cyclic monophosphate (8-Br-cGMP) (B), or for fifteen minutes in SNAP, at different concentrations. […] Following induction of oxidative stress, DNA damage was quantified using the Comet assay, as described above. Shown in FIGS. 14-16 are graphs illustrating the DNA damage protection as function of the molar concentration of H-89 (FIG. 14), 8-Br-cGMP (FIG. 15), and SNAP (FIG. 16).\nIn yet another test, human fibroblastoid M1 cells were pre-incubated for fifteen minutes with different concentrations of the A2bAR antagonist, enprofylline (Enpro)."}, "[3]": {"system": "human fibroblastoid M1 cells", "assay": "Measurement of cAMP levels (EIA kit)", "assay_type": "cell-based", "conditions": "10 μM agent, in presence of RO20-1724; FIG. 18", "description": "Cyclic AMP levels were measured using a kit that is commercially-available from Amersham Biosciences of Piscataway, N.J., under the name “EIA Kit” (Cat. No. RPN225). Specifically, human fibroblastoid M1 cells were cultured overnight in 6-well tissue culture plates, 2×10^5 cells per well. Before stimulation, the cells were washed once with serum-free DMEM medium and incubated in 37° C. with 0.2 millimolar (mM) RO20-1724, a phosphodiesterase inhibitor, for fifteen minutes. Following this incubation period, 10 μM of either 2-chloroadenosine or isopentenyl diphosphate were added to each cell culture, and the cells cultures were thereafter maintained at 37° C. for the indicated time in the presence of phosphodiesterase inhibitor (RO20-1724). Determination of cAMP levels was performed with the EIA Kit in accordance with its manufacturer's instructions.\nIn another test, human fibroblastoid M1 cells also were stimulated with 10 μM 2-chloroadenosine or isopentenyl diphosphate, and cAMP levels were quantified."}, "[4]": {"system": "human fibroblastoid M1 cells", "assay": "Measurement of ROS (DCFH-DA fluorescence)", "assay_type": "cell-based", "conditions": "for H2O2-induced ROS formation: 10 μM agent, 100 μM H2O2, FIG. 4", "experimental": "The presence of reactive oxidative species was measured using commercially-available equipment in accordance with the manufacturer's instructions. Specifically, sub-confluent cells were detached from flasks using 0.05% trypsin and 5×10^3 human fibroblastoid M1 cells per well were seeded into 96-well plates (Falcon 35-3072). After an overnight culture, the cells were twice washed with DMEM-phenol red-free medium. The cells were subsequently treated with various concentrations of signal-modulating agents in the presence of 10 micromolar (μM) DCFH-DA in 100 microliters (μl) DMEM-phenol red-free medium at 37° C. for 30 minutes. This medium was replaced by a 100 μl DMEM-phenol red-free medium containing DCFH-DA and either 50 mU/ml GO, or 100 μM H2O2, and the cultures were subsequently incubated at 37° C. for 30 minutes. After thirty minutes incubation, the plates were read by CytoFluor™ 2300 (Millipore) at an excitation wavelength (Ex) of 480 nm and emission wavelength (Em) of 520 nm, or by Fusion-Alpha HT system (PerkinElmer Life Sciences, Boston, Mass.) at Ex 485 nm and Em 530 nm.\nROS levels were quantified using the Fusion-Alpha HT system, as described above.\nTo verify the efficiency of that pathway, DCFH-DA-loaded human fibroblastoid M1 cells were incubated with 10 μM 2-chloroadenosine for thirty minutes followed by incubation with 100 μM H2O2 for twenty minutes to induce oxidative stress. […] ROS levels were quantified using the CytoFluor™ 2300 system, as described above."}, "[5]": {"system": "murine L-cell fibroblasts, human cells of lymphoid, fibroblastoid, myeloid, or neuronal lineages", "assay": "Antioxidative signaling in other cell lineages and species (data not shown)", "assay_type": "cell-based"}, "[6]": {"system": "human fibroblastoid M1 cells", "assay": "Comet assay, protection against H2O2-induced DNA damage", "assay_type": "cell-based", "description": "as §1, §2\nA dose response analysis of DNA damage protection also was performed to determine the efficacy of various doses of isopentenyl diphosphate versus 2-chloroadenosine. The analysis was carried out by pre-incubating human fibroblastoid M1 cells for thirty minutes with different concentrations of isopentenyl diphosphate or 2-chloroadenosine prior to incubating the cells with 100 μM H2O2 to induce oxidative stress. Following induction of oxidative stress, DNA damage was quantified using the Comet assay, as described above."}, "[7]": {"system": "A1AR-transfected HEK293 cells", "assay": "Comet assay in A1AR-transfected HEK293 cells", "assay_type": "cell-based, human", "description": "A single-cell gel electrophoresis (SCGE) assay, known as the “Comer” assay was performed to detect/quantify DNA damage by identifying DNA-strand breakage in individual cells, for example. The assay was performed using a kit commercially-available from Trevigen, Inc., of Gaithersburg, Md., as “CometAssay™.” See P. J. McCarthy et al. (1997) Mutagenesis 12:209-214; A. R. Collins et al. (2001) Biochem. Soc. Trans. 29:337-341. Sub-confluent cells were washed with phosphate buffered saline (PBS) and detached from the tissue culture flasks using a 0.05% trypsin solution. After centrifugation, the cells were washed and re-suspended in serum-free DMEM medium. The cells were divided into Eppendorf tubes (1.5 ml), and centrifuged at 2500 rotations per minutes (rpm) for ten minutes. Signal-modulating agents were added and samples were kept in a 37° C. incubator for thirty minutes. In some experiments, the cells were pre-incubated with various inhibitors for the indicated times at 37° C. At the end of the incubation period with signal-modulating chemicals, the cells were washed with PBS and treated with 100 μM H2O2 in 0.5 ml PBS on ice for twenty minutes. Following the hydrogen peroxide treatment, the cells were immediately microfuged for fifteen seconds. The cells were twice washed with cold PBS, and re-suspended at 1.0×10^5 cells/ml in ice-cold PBS. […]\n(§3) The slides were placed at 4° C. in the dark for ten minutes and subsequently immersed in pre-chilled Lysis Solution at 4° C. for an additional thirty minutes. […] Comet tail fluorescence intensity was quantified with a Diagnostic Instruments digitized camera, mounted on a Nikon Eclipse E400 microscope, using Scion Image software. Quantification of comet fluorescence was performed as described in P. J. McCarthy et al. (1997) Mutagenesis 12:209-214. […] The data are shown either in arbitrary fluorescent units, or as % DNA damage protection (i.e., the percent decrement in tail fluorescence intensity with test reagent, relative to the intensity recorded in cells treated with hydrogen peroxide only)±S.E.M. […]"}, "[8]": {"system": "A2bAR-transfected HEK293 cells", "assay": "Comet assay in A2bAR-transfected HEK293 cells", "assay_type": "cell-based", "conditions": "Homo sapiens, 100 μM H2O2, read-out: IC50, DNA damage protection", "description": "(§4) A single-cell gel electrophoresis (SCGE) assay, known as the “Comer” assay was performed to detect/quantify DNA damage by identifying DNA-strand breakage in individual cells, for example. The assay was performed using a kit commercially-available from Trevigen, Inc., of Gaithersburg, Md., as “CometAssay™.” See P. J. McCarthy et al. (1997) Mutagenesis 12:209-214; A. R. Collins et al. (2001) Biochem. Soc. Trans. 29:337-341. Sub-confluent cells were washed with phosphate buffered saline (PBS) and detached from the tissue culture flasks using a 0.05% trypsin solution. After centrifugation, the cells were washed and re-suspended in serum-free DMEM medium. […]\nas §3"}, "[9]": {"system": "A2aAR-transfected HEK293 cells", "assay": "Comet assay in A2aAR-transfected HEK293 cells", "assay_type": "cell-based", "conditions": "Homo sapiens, 100 μM H2O2, read-out: IC50, DNA damage protection", "description": "as §4, §3"}, "[10]": {"conditions": "dependence of DNA damage protection signaling"}}, "note": "Several values for one entry are separate records, joined by “and”; a condition that tells them apart may be missing. Equal entries are not always repeated. Where two headings read alike, the source gives them in different places.", "data": [{"molecule": "C=C(C)CCOP(=O)(O)OP(=O)(O)O", "note": "[IPP, isopentenyl diphosphate]", "values": [{"measurement": "DNA damage protection induction", "setting": "[1]", "value": "intact DNA damage protection induction"}, {"measurement": "Mechanism of Signal Transduction: FT", "setting": "[2]", "value": "−"}, {"measurement": "Mechanism of Signal Transduction: GGT", "setting": "[2]", "value": "+"}, {"measurement": "Mechanism of Signal Transduction: Mevalonate Pathway", "setting": "[2]", "value": "+"}, {"measurement": "Mechanism of Signal Transduction: PKA", "setting": "[2]", "value": "−"}, {"measurement": "Mechanism of Signal Transduction: Proteasome", "setting": "[2]", "value": "+"}, {"measurement": "c[AMP]i over time", "setting": "[3]", "value": "did not trigger any meaningful increase"}, {"measurement": "H2O2-induced ROS formation", "setting": "[4]", "value": "equivalent inhibition of H2O2-induced ROS formation"}, {"measurement": "ROS generation", "setting": "[4]; different concentrations, 50 mU/ml GO for thirty minutes, FIG. 3", "value": "efficient at blocking ROS generation"}, {"measurement": "response to antioxidative signaling", "setting": "[5]", "value": "all could respond"}, {"measurement": "H2O2-mediated DNA damage", "setting": "[6]", "value": "prevented H2O2-mediated DNA damage"}, {"measurement": "potency relative to 2-chloroadenosine", "setting": "[6]", "value": "about 100 times"}, {"measurement": "triggering of DNA damage protection", "setting": "[6]", "value": "triggered DNA damage-protection signaling"}, {"measurement": "IC50", "setting": "[6]; read-out: IC50 (pM), DNA damage protection", "value": 17, "unit": "pM"}, {"measurement": "IC50", "setting": "[6]; read-out: IC50, DNA damage protection", "value": "17 pM and ~17 pM"}, {"measurement": "DNA damage protection response", "setting": "[7]", "value": "responded readily"}]}, {"molecule": "Nc1nc(Cl)nc2c1ncn2[C@@H]1O[C@H](CO)[C@@H](O)[C@H]1O", "note": "[2CA, 2-chloroadenosine]", "values": [{"measurement": "IC50", "setting": "[8]", "value": 120, "unit": "nM"}, {"measurement": "DNA damage protection induction", "setting": "[1]; HL60, K562, XPA, data not shown", "value": "intact DNA damage protection induction"}, {"measurement": "Mechanism of Signal Transduction: FT", "setting": "[2]; [10]", "value": "−"}, {"measurement": "Mechanism of Signal Transduction: GGT", "setting": "[2]; [10]", "value": "−"}, {"measurement": "Mechanism of Signal Transduction: Mevalonate Pathway", "setting": "[2]; [10]", "value": "−"}, {"measurement": "Mechanism of Signal Transduction: PKA", "setting": "[2]; [10]", "value": "+"}, {"measurement": "Mechanism of Signal Transduction: Proteasome", "setting": "[2]; [10]", "value": "−"}, {"measurement": "c[AMP]i over time", "setting": "[3]", "value": "triggered an increase"}, {"measurement": "H2O2-induced ROS formation", "setting": "[4]", "value": "equivalent inhibition of H2O2-induced ROS formation"}, {"measurement": "response to antioxidative signaling", "setting": "[5]; data not shown", "value": "all could respond"}, {"measurement": "IC50", "setting": "[9]", "value": 140, "unit": "nM"}, {"measurement": "H2O2-mediated DNA damage", "setting": "[6]; 10 μM agent, 100 μM H2O2 for twenty minutes, FIG. 5", "value": "prevented H2O2-mediated DNA damage"}, {"measurement": "IC50", "setting": "[6]; Homo sapiens, AR agonists and isoprenyls, M1 cells, 100 μM H2O2, Comet assay, read-out: IC50 (pM), DNA damage protection", "value": 2040, "unit": "pM"}, {"measurement": "IC50", "setting": "[6]; Homo sapiens, M1 cells pre-incubated thirty minutes, then 100 μM H2O2, FIGS. 6 and 7, read-out: IC50, DNA damage protection", "value": 2040, "unit": "pM"}, {"measurement": "triggering of DNA damage protection", "setting": "[6]; M1 cells, various concentrations, 100 μM H2O2", "value": "triggered DNA damage protection"}, {"measurement": "DNA damage protection response", "setting": "[7]; A1AR-transfected HEK293 cells, 100 μM H2O2", "value": "failed to transduce the antioxidative signal"}]}]}
